Laboratory results: PubChem BioAssay (NCI)
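Dose response: 5 concentrations. Exposure: 48 h. Format: 96-well plates. Endpoint: linear interpolation; highest concentration if not reached. TGI: concentration producing complete growth inhibition.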 Where a SMILES comes first, the peptide text is derived from it. The star is where a group is joined. Cbz = O=C(OCc1ccccc1)*

How the values were obtained:
Assay in all cases: DTP human tumour cell line panel, 48 h
[1] = test system: MDA-MB-231 breast
[2] = test system: UACC-257 melanoma
[3] = test system: SNB-75 CNS
[4] = test system: NCI-H522 lung
[5] = test system: UACC-62 melanoma
[6] = test system: MOLT-4 leukemia
[7] = test system: CCRF-CEM leukemia
[8] = test system: NCI-H23 lung
[9] = test system: T-47D breast
[10] = test system: OVCAR-5 ovarian

Compound	TGI [1]	TGI [2]	TGI [3]	TGI [4]	TGI [5]	TGI [6]	TGI [7]	TGI [8]	TGI [9]	TGI [10]
N[C@H](Cc1ccc2oc3cc(=O)c4ccccc4c-3nc2c1)C(=O)O	> 100 µM	> 100 µM	> 100 µM	> 100 µM	62 µM	> 100 µM	56.2 µM	> 100 µM	> 100 µM	> 100 µM
COc1cc2c(cc1O)NC(=O)[C@@H]1CCCN1C2=O	> 100 µM	> 100 µM	> 100 µM	> 100 µM	> 100 µM	> 100 µM	> 100 µM	> 100 µM	> 100 µM	> 100 µM
OC(C/C=N/N=C/CC(O)(C(F)(F)Cl)C(F)(F)Cl)(C(F)(F)Cl)C(F)(F)Cl	> 10 µM	> 10 µM	> 10 µM	> 10 µM	> 10 µM	> 10 µM	> 10 µM	> 10 µM	> 10 µM	–
O=P1(Cc2ccccc2)N(Cc2ccccc2)[C@@H]2CCCC[C@H]2N1Cc1ccccc1	24.9 µM	20.1 µM	21.1 µM	14.4 µM	20.6 µM	8.44 µM	32.3 µM	23.2 µM	24.3 µM	24.7 µM
c1ccc2c3[nH]c(c2c1)=Nc1ccc(cc1)-c1nc2ccc(cc2o1)N=c1[nH]c(c2ccccc12)=Nc1ccc2nc(oc2c1)-c1ccc(cc1)N=3	> 100 µM	> 100 µM	> 100 µM	> 100 µM	> 100 µM	> 100 µM	26.7 µM	> 100 µM	> 100 µM	> 100 µM
Cn1nnnc1SC(F)(F)c1nc2ccccc2o1	> 100 µM	> 100 µM	> 100 µM	> 100 µM	> 100 µM	> 100 µM	> 100 µM	> 100 µM	> 100 µM	> 100 µM
C=CC1(CC[C@]2(c3ccc(OC)c(OC)c3)C=[N+]([O-])O[C@H](O[C@@H]3CCCC[C@H]3C(C)(C)c3ccccc3)C2)OCC(C)(C)CO1	33.9 µM	> 54.2 µM	> 52.2 µM	17.1 µM	33.9 µM	21.6 µM	23.8 µM	> 100 µM	> 46.7 µM	39 µM
CC(=O)OC(CCC1(C)OC1COc1ccc(CCNC(=O)C=C(C)C)cc1)C(C)(C)OC(C)=O (configuration not stated)	> 100 µM	27.3 µM	98.1 µM	> 100 µM	> 100 µM	39.1 µM	> 92.7 µM	> 100 µM	> 100 µM	> 100 µM
O=C1CC(=O)NC(=NN2C(=O)/C(=C/c3ccc(Cl)c(Cl)c3)N=C2c2ccccc2)N1	51.7 µM	> 100 µM	81.8 µM	86 µM	32.6 µM	50.8 µM	45.3 µM	> 100 µM	> 100 µM	> 100 µM
CC(=O)c1c(N=[N+]=[N-])c2cccc3c2n(c1=O)CCC3	32.1 µM	37.8 µM	59.3 µM	28.1 µM	35.1 µM	62.6 µM	51.8 µM	45.6 µM	60.4 µM	34.5 µM
COc1ccc(CNc2nc(NC3CCCCC3)nc(NC3CCCCC3)n2)cc1	20.1 µM	> 100 µM	> 100 µM	28.8 µM	50.9 µM	> 100 µM	> 100 µM	12.6 µM	44 µM	> 100 µM
CN1CCc2c(sc3[nH]c(=S)[nH]c(=S)c23)C1	> 100 µM	> 100 µM	> 100 µM	> 100 µM	> 100 µM	> 100 µM	> 100 µM	> 100 µM	> 100 µM	> 100 µM
O=Cc1ccc(-c2ccc(-c3ccc(CO)s3)o2)s1	> 80.3 µM	0.506 µM	69.1 µM	47.7 µM	6.03 µM	> 39 µM	> 23.7 µM	> 76.7 µM	62.3 µM	–
O=c1cc(NNc2cccc(Cl)c2)[nH]c(=O)[nH]1	32.1 µM	> 100 µM	> 100 µM	34.4 µM	> 100 µM	60.1 µM	68.8 µM	> 100 µM	> 100 µM	> 100 µM
CCOC(=O)CCC(NC(=O)OCc1ccccc1)C(=O)NC(CCC(=O)OCC)C(=O)OCC (configuration not stated) (Cbz-Glu(OEt)-Glu(OEt)-OEt; configuration not given here)	> 100 µM	> 100 µM	> 100 µM	> 100 µM	> 100 µM	> 100 µM	> 100 µM	> 100 µM	> 100 µM	> 100 µM
COc1ccc(N2C(=O)C(=O)N(c3ccc(N=Nc4ccccc4)cc3)C2=S)cc1	41.5 µM	34.3 µM	55.5 µM	20.2 µM	31.6 µM	> 100 µM	> 100 µM	34.9 µM	45.1 µM	44.6 µM
Cc1ccnc2c1C(=O)C1=C(OC(C)(C)CC1O)C2=O (configuration not stated)	15.4 µM	3.47 µM	0.297 µM	11.1 µM	3.25 µM	26.9 µM	44.5 µM	4.82 µM	19.4 µM	20.6 µM
Oc1c(Br)ccc2cccnc12	24.7 µM	–	> 100 µM	6.21 µM	7 µM	> 26.9 µM	3.98 µM	7.28 µM	21.1 µM	> 100 µM
N#Cc1cc2c(cc1Cl)Sc1nnc(Nc3ccccc3)n1S2(=O)=O	4.7 µM	3.58 µM	10.7 µM	4.33 µM	3.58 µM	4.06 µM	> 24 µM	3.26 µM	13.3 µM	3.8 µM
O=C(Cn1c2ccc(Br)cc2c2nc3ccccc3nc21)NNC(=S)NC1CCCCC1	31.6 µM	30 µM	47.5 µM	27.6 µM	43.2 µM	22.6 µM	18.8 µM	30.5 µM	45.8 µM	38.9 µM
C/C=C\C(CC(=O)NCC(=O)c1c[nH]c2ccccc12)CC(=O)OC (configuration not stated)	> 100 µM	> 100 µM	> 100 µM	> 100 µM	> 100 µM	> 100 µM	96.5 µM	> 100 µM	> 100 µM	> 100 µM
